ChEMBL document CHEMBL1201862, “PubChem BioAssay data set” (2004)
Calls of active or inactive are those of the source.

Tests used:
Cytochrome P450 3A4 = Cytochrome P450 3A4 (Homo sapiens, UniProt P08684);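 further: CYP3A4 tested as one member of a cytochrome P450 panel screen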
[1] = loss of viability in HepG2 cells – cell-based, CellTiter-Glo, cherry-picked, cytotoxicity control for Shn3 inhibitor project, dose response (AID 624134); assay type: functional
[2] = reduction of Shn3 3'UTR-driven luciferase in osteoblasts – cell-based, Clone20 osteoblasts, firefly luciferase, cherry-picked, dose response (AID 624132); assay type: functional;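 further: firefly luciferase luminescence from reporter carrying the Shn3 3'UTR in osteoblasts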
[3] = non-specific 3'UTR reporter inhibition in Clone20-Shn3RL – cell-based, Renilla luciferase, cherry-picked, counter-screen for Shn3 inhibitor project, dose response (AID 624133); assay type: functional
HEK293 = assay: EBV LMP1 TES2 canonical NF-kB signalling blockers – cell-based, HEK293, luciferase, cherry-pick, dose response (AID 588343); assay type: functional; details: Homo sapiens
Prothrombin = Prothrombin (Bos taurus, UniProt P00735); assay: thrombin protease inhibitors – biochemical, fluorescence polarization, uHTS hits, dose response (AID 602369); assay type: functional
[4] = target: 72 kDa type IV collagenase (Homo sapiens, UniProt P08253); assay: Dose Response validation of uHTS RPN11 inhibitor hits using a MMP-2 Fluorescence assay.; assay type: functional
[5] = target: 26S proteasome non-ATPase regulatory subunit 14 (Homo sapiens, UniProt O00487); assay: inhibition of proteasome subunit RPN11 – biochemical, fluorescence polarization, uHTS hits, confirmation (AID 602368); assay type: functional
[6] = target: Glucose-6-phosphate 1-dehydrogenase (Homo sapiens, UniProt P11413); assay: inhibition of Homo sapiens G6PD, dose series – biochemical, fluorescence, selectivity assay for P. falciparum G6PD inhibitor project, dose response (AID 504792); assay type: functional
Glucose-6-phosphate 1-dehydrogenase, sequence (P11413 whole entry): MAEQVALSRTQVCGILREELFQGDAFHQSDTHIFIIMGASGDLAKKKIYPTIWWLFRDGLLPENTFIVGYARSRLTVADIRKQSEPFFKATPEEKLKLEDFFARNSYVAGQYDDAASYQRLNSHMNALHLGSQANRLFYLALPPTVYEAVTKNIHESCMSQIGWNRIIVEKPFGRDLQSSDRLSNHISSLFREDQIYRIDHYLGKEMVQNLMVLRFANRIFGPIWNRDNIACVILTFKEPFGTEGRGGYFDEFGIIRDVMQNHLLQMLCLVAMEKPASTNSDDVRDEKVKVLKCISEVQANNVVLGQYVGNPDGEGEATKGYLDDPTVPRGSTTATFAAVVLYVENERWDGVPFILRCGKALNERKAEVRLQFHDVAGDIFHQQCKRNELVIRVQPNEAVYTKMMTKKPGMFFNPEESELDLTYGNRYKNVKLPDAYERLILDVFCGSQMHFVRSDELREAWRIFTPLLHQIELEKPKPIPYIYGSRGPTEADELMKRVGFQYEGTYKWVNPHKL

[7] = target: T1, Microphthalmia-associated transcription factor (Homo sapiens, UniProt O75030); assay: reducers of TRPM1 reporter luminescence, concentration series – cell-based, SK-MEL-5, cherry-picked, set 3, MITF inhibitor project, dose response (AID 493073); assay type: functional;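 further: SK-MEL-5 melanoma cells with luciferase driven by the MITF target TRPM1 promoter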
T1 sequence (O75030 whole entry): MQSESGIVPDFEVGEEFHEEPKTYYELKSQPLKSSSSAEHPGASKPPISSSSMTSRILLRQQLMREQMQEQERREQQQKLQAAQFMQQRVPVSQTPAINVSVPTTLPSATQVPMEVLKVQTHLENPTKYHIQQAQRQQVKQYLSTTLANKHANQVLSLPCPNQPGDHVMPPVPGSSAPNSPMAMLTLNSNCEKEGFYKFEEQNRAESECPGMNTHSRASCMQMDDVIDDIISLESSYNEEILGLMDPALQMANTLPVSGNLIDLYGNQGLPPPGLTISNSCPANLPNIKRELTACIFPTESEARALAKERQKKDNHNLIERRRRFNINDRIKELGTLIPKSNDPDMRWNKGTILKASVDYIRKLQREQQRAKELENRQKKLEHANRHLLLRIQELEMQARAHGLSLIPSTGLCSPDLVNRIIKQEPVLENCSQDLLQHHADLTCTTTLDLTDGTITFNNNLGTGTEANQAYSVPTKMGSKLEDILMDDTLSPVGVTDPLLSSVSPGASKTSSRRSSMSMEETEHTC

H9c2 = assay: cells; assay type: functional, cell-based; details: Rattus norvegicus, H9c2, Myocardium;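 further: confirmatory concentration-response retest of ultra-high-throughput screening hits for modulation of myocardial damage; cell death induced by hydrogen peroxide oxidative stress; compound pretreatment for 60 min then peroxide exposure for 2 h; potency is for protecting the cells against peroxide damage rather than for killing them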
Protein RecA = target: T2, Protein RecA (Mycobacterium tuberculosis, UniProt P9WHJ3); assay: Fluorescence Cell-Free Homogeneous Dose Retest to Identify Inhibitors of RecA-Intein Splicing Activity. [Related pubchem assays (depositor defined):AID2097, AID2223, AID489010, AID492950]; assay type: functional
T2 sequence (P9WHJ3 whole entry): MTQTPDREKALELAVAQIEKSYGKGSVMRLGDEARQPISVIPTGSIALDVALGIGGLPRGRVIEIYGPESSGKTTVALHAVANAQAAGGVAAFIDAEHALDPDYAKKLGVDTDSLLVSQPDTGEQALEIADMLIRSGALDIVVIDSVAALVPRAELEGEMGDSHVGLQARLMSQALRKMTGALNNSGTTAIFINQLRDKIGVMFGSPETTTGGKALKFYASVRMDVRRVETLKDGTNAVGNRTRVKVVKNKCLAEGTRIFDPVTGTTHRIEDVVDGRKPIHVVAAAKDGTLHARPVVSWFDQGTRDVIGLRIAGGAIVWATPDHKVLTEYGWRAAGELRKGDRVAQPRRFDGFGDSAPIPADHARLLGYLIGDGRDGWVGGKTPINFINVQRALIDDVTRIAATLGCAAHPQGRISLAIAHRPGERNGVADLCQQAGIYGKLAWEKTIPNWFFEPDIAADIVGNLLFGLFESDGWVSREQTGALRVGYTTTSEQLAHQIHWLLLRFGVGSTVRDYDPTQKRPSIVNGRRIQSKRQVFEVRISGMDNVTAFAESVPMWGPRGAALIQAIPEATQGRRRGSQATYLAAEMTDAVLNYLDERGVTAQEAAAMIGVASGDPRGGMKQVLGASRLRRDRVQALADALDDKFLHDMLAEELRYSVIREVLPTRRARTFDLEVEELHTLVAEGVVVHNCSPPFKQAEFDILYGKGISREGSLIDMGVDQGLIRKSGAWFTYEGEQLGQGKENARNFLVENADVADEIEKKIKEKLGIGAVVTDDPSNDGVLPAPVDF

Fatty acid synthase [8] = target: T3, Fatty acid synthase (Homo sapiens, UniProt P49327); assay: inhibition of human FAS-TE enzyme activity – biochemical, endpoint fluorescence intensity, uHTS hits, dose response (AID 624327); assay type: functional;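 further: fluorescence from hydrolysis of an O-methyl fluorescein acyl ester substrate by the enzyme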
[9] = target: T4, Replicative DNA helicase DnaB (Mycobacterium tuberculosis, UniProt P9WMR3); assay: DnaB intein splicing inhibitors, dose response, biochemical, cell-free fluorescence (AID 449749); assay type: functional
T4 sequence (P9WMR3 whole entry): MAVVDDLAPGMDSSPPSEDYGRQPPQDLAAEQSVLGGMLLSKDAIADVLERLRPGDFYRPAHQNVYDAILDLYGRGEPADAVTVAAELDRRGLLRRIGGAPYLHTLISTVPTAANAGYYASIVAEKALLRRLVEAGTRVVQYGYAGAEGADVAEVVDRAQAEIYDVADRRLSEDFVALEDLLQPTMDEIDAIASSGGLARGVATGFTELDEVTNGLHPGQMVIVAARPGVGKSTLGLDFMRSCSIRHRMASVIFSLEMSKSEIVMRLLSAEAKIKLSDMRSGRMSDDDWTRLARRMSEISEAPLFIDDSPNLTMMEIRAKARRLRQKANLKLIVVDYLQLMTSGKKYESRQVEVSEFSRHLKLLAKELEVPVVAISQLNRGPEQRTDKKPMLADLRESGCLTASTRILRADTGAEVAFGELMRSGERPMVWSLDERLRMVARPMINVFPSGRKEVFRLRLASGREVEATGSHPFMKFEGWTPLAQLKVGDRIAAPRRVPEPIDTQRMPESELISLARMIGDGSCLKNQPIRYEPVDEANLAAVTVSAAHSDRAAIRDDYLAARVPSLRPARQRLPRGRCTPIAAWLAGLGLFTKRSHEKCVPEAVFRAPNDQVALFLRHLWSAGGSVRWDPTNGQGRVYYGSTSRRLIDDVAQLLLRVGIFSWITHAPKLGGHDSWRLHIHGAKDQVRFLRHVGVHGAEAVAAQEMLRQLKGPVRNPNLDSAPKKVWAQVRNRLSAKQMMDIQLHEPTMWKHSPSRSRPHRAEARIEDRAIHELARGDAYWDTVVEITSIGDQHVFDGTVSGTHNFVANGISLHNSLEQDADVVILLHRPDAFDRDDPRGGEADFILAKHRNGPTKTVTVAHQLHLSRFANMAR

Fatty acid synthase [10] = target: T3, Fatty acid synthase; assay: inhibition of human FAS-TE enzyme activity – biochemical, kinetic fluorescence intensity, dose response (AID 624326); assay type: functional;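 further: rate of fluorescence rise from hydrolysis of a fluorogenic O-methyl fluorescein ester substrate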
[11] = target: Peroxisome proliferator-activated receptor gamma/Nuclear receptor coactivator 2 (Homo sapiens, UniProt P37231); assay: (§1) TR-FRET dose response biochemical High Throughput Screening assay for agonists of the steroid receptor coactivator 2 (SRC-2) recruitment by the peroxisome proliferator-activated receptor gamma (PPAR gamma): non-selective agonists. [Related pubchem assays: 1297, 1032 ]; assay type: functional
Peroxisome proliferator-activated receptor gamma/Nuclear receptor coactivator 2, sequence (P37231 whole entry): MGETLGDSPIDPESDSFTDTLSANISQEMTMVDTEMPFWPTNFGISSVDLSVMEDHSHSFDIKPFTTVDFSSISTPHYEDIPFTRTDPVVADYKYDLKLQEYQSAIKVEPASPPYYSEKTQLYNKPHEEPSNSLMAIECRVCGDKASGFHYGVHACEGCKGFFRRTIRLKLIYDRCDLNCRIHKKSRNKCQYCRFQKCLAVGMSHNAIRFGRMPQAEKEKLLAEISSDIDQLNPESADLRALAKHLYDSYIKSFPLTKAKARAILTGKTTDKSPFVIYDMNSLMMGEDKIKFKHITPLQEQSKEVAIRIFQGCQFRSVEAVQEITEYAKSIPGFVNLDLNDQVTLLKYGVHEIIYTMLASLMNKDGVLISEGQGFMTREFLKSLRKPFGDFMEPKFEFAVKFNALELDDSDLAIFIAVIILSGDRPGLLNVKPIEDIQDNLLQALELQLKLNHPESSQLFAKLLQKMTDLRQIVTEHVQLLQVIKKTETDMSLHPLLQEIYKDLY
Peroxisome proliferator-activated receptor gamma/Nuclear receptor coactivator 2, sequence (Q15596 whole entry, further chain): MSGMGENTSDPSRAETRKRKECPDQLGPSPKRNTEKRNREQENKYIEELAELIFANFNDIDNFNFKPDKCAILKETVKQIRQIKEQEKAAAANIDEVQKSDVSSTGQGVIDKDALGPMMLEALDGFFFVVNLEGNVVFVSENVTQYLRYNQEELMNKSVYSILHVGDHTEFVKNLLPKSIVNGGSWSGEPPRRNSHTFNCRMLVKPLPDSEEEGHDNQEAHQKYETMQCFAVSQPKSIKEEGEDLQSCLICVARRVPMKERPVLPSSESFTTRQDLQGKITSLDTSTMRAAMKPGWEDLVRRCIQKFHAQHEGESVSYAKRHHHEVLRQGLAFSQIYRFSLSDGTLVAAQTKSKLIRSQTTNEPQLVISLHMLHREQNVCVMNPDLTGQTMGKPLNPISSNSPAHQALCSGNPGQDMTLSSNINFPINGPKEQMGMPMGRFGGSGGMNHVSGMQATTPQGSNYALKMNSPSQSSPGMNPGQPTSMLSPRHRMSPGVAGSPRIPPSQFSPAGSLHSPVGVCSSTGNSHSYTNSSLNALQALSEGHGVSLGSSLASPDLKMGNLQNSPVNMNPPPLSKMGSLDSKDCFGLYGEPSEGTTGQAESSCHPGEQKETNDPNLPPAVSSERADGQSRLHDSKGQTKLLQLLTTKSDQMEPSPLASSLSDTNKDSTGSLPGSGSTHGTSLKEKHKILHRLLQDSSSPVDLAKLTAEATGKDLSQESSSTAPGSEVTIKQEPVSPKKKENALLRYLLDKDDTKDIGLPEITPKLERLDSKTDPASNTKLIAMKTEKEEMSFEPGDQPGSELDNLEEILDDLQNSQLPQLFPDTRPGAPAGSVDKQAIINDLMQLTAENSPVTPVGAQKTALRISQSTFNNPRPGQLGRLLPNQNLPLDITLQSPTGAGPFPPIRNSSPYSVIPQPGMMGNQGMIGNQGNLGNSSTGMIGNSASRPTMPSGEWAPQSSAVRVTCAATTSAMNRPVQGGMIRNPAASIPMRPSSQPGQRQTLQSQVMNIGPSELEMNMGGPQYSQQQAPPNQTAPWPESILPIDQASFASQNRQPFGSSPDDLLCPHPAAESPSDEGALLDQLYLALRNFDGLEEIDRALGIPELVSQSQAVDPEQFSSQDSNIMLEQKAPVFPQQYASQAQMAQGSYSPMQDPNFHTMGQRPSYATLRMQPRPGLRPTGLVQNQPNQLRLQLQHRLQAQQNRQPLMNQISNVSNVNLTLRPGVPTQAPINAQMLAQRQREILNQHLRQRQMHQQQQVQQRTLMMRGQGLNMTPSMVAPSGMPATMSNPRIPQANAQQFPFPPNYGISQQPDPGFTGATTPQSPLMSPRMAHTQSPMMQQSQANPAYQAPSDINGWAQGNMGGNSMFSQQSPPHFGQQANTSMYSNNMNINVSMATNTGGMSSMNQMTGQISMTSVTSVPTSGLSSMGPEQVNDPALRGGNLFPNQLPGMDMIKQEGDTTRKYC

[12] = target: Peroxisome proliferator-activated receptor gamma/Nuclear receptor coactivator 1 (Homo sapiens, UniProt P37231); assay: as §1, with “1 (SRC-1)” for “2 (SRC-2)”, “assays (depositor defined):AID1300, AID1808, AID504735, AID631]” for “assays: 1297, 1032 ]”; assay type: protein assay
Peroxisome proliferator-activated receptor gamma/Nuclear receptor coactivator 1, sequence (P37231 whole entry): as the sequence (P37231 whole entry) above
Peroxisome proliferator-activated receptor gamma/Nuclear receptor coactivator 1, sequence (Q15788 whole entry, further chain): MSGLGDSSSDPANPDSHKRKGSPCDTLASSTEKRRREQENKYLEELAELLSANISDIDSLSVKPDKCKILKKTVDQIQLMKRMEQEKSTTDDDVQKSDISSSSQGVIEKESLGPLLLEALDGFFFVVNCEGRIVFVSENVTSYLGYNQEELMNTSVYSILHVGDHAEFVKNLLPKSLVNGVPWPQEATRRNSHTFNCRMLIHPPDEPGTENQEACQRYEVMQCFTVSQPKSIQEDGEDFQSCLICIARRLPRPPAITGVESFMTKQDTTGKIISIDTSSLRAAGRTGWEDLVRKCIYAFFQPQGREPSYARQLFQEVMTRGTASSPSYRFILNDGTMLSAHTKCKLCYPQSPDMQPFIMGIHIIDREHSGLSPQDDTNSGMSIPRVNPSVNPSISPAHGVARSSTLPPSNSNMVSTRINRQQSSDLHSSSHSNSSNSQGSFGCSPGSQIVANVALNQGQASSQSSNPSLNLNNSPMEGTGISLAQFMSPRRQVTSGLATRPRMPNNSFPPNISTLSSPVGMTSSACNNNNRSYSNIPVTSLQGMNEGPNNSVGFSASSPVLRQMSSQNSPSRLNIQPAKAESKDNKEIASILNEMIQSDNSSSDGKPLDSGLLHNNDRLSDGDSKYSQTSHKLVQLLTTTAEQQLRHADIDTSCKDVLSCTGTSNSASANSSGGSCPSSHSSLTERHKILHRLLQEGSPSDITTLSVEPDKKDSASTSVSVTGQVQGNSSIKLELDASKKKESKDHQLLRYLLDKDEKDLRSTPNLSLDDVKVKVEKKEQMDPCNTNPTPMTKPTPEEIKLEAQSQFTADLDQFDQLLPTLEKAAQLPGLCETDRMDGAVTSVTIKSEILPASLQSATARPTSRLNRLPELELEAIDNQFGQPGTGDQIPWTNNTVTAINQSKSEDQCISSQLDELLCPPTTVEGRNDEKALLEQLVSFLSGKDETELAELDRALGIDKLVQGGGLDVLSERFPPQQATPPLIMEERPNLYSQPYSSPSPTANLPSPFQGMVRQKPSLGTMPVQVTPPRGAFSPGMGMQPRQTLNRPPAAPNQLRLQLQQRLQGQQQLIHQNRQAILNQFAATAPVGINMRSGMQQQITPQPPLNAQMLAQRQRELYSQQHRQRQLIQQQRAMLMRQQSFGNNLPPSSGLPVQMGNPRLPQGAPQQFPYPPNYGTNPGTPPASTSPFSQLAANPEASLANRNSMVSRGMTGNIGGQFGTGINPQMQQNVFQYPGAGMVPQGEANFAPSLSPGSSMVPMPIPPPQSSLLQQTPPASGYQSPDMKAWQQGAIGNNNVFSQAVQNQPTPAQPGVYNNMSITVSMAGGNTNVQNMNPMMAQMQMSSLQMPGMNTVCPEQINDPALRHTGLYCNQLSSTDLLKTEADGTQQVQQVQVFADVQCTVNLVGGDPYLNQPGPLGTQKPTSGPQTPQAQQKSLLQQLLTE

[13] = target: Peroxisome proliferator-activated receptor gamma/Nuclear receptor coactivator 3 (Homo sapiens, UniProt P37231); assay: as §1, with “3 (SRC-3)” for “2 (SRC-2)”, “1301 (Confirmation screen.), 1048 (Primary screen.)]” for “1297, 1032 ]”; assay type: functional
[14] = Luminescence Cell-Based Dose Retest to Confirm Inhibitors of Cancer Stem Cells. [Related pubchem assays (depositor defined):AID2717, AID2721]; assay type: functional; details: Homo sapiens
[15] = NIH3T3 cell viability loss – ATP luminescence, mouse fibroblasts, counter-screen, dose response (AID 2010); assay type: functional, cell-based;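 further: cells exposed to compound for about 90 hours before reading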
[16] = Trypanosoma cruzi growth suppression in host cells – NIH3T3 host cells, beta-gal luminescence, confirmation (AID 2044); assay type: functional, cell-based;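 further: intracellular parasites grown in NIH/3T3 mouse fibroblasts as host cells; luminescent beta-galactosidase reporter signal from transgenic T. cruzi replicating inside host cells; inhibitors lower the luminescence signal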
Cytochrome P450 2C9 = Cytochrome P450 2C9 (Homo sapiens, UniProt P11712)

Cytochrome P450 3A4, sequence (P08684 whole entry): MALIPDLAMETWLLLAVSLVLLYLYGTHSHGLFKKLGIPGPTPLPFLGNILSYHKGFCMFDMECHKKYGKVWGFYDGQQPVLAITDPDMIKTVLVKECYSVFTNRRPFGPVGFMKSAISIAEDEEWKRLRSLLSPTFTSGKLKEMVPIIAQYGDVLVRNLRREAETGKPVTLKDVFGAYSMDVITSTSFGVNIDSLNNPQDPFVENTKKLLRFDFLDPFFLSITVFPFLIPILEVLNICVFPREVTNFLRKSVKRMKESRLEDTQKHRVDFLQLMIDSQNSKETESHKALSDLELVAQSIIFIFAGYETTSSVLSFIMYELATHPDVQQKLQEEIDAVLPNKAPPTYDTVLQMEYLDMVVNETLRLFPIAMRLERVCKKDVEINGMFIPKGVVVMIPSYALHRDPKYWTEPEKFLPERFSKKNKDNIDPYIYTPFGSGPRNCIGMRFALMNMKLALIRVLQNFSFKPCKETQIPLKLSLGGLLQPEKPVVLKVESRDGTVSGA

O=C1CCCc2ccccc2N1Cc1cccc(Cl)c1
AC50 (Cytochrome P450 3A4): inconclusive

Cc1cc2c(cc(C(=O)OC(C(=O)NC3CCCCC3)C(C)C)n2C)o1 (stereo not drawn)
AC50 [1]: 55.8 µM (active) | AC50 [2]: 5.9 µM (active) | AC50 [3]: 7.23 µM (active)

COc1cccc(C(=O)CC(=O)C(=O)Nc2ccc(C)cc2Cl)c1
AC50 (HEK293): 35 µM (active)

Cc1cccc2sc(NC(=O)C3CCCN(S(=O)(=O)c4cccc5nonc45)C3)nc12 (stereo not drawn)
IC50 (Prothrombin): 26.2 µM (active) | IC50 [4]: > 100 µM (inactive) | IC50 [5]: 25.9 µM (active)

Cc1cc(SCC(=O)N/N=C/c2ccco2)nc2ccccc12
IC50 [6]: 57.4 µM (inactive)

Cc1ccc(-c2nnc(O)c3ccccc23)cc1S(=O)(=O)NCC1CCCO1 (stereo not drawn)
AC50 [7]: 53.2 µM (active) | IC50 (H9c2): 15.3 µM (active)

CC(=O)N(C1CC(C)C(C#N)(C#N)C1(C#N)C#N)N(C)C (stereo not drawn)
AC50 [7]: 9.24 µM (active) | EC50 (Protein RecA): 3.17 µM (active) | IC50 (Fatty acid synthase [8]): 8.68 µM (active) | AC50 [9]: 1.68 µM (active) | IC50 (Fatty acid synthase [10]): 6.1 µM (active)

Cc1cc(C(=O)OCC(=O)c2ccc(Br)s2)c(C)o1
EC50 [11]: 14.6 µM (not active) | EC50 [12]: > 79.4 µM (inactive) | EC50 [13]: > 79.4 µM (not active)

CCOC(=O)c1c(NC(=O)C(c2ccccc2)c2ccccc2)sc2c1C1CCN2CC1.Cl
AC50 [14]: 1.09 µM (active) | AC50 (Cytochrome P450 3A4): inconclusive | EC50 [15]: > 60 µM (not active) | EC50 [16]: 1.86 µM (active)

O=c1c2c(-c3cccs3)csc2[nH]c(=S)n1-c1ccccc1
EC50 [11]: 11.6 µM (not active) | AC50 (Cytochrome P450 2C9): 8.91 µM (inconclusive) | EC50 [12]: 12.8 µM (inactive) | EC50 [13]: > 79.4 µM (not active)

Cc1cc(Cl)ccc1NC(=O)CN1CCC(C(O)(c2ccccc2)c2ccccc2)CC1
AC50 (Cytochrome P450 3A4): inconclusive
